Results from US8802597B2, “Herbicidal pyrimidines” (E I du Pont de Nemours and Company, priority 2003, dated 2014).

Experiments:
Assay in all cases: Test G pre/postemergence
Type in all cases: in vivo
Conditions in all cases: Preemergence
[1] = tested on: common chickweed (Stellaria media)
How it was run: (§1)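 Pre- and postemergence greenhouse test; compound in non-phytotoxic solvent/surfactant mix. Post timing: 2–18 cm plants, 1- to 4-leaf. Visual rating vs controls at 12–21 d, 0 (no effect) to 100 (complete control).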

[2] = tested on: pitted morningglory (Ipomoea lacunosa)
How it was run: as §1

[3] = tested on: black mustard (Brassica nigra)
How it was run: as §1

[4] = tested on: Surinam grass (Brachiaria decumbens)
How it was run: as §1

[5] = tested on: annual bluegrass (Poa annua)
How it was run: as §1

[6] = tested on: Italian ryegrass (Lolium multiflorum)
How it was run: as §1

[7] = tested on: common mallow (Malva sylvestris)
How it was run: as §1

[8] = tested on: dallisgrass (Paspalum dilatatum)
How it was run: as §1

[9] = tested on: southern sandbur (Cenchrus echinatus)
How it was run: as §1

[10] = tested on: bermudagrass (Cynodon dactylon)
How it was run: as §1

[11] = tested on: quackgrass (Elytrigia repens)
How it was run: as §1

[12] = tested on: johnsongrass (Sorghum halepense)
How it was run: as §1

[13] = tested on: green foxtail (Setaria viridis)
How it was run: as §1

[14] = tested on: itchgrass (Rottboellia cochinchinensis)
How it was run: as §1

Compound: CCOC(=O)c1nc(C2CC2)nc(N)c1Cl [Compound 4, ethyl 6-amino-5-chloro-2-cyclopropyl-4-pyrimidinecarboxylate]
- Plant response rating, Chickweed ([1]; 62 g ai/ha, scale 0-100): 100
- Plant response rating, Chickweed ([1]; 125 g ai/ha, scale 0-100): 100
- Plant response rating, Chickweed ([1]; 250 g ai/ha, scale 0-100): 100
- Plant response rating, Chickweed ([1]; 500 g ai/ha, scale 0 to 100): 100
- Plant response rating, Morningglory ([2]; 62 g ai/ha, scale 0-100): 100
- Plant response rating, Morningglory ([2]; 125 g ai/ha, scale 0-100): 100
- Plant response rating, Morningglory ([2]; 250 g ai/ha, scale 0-100): 100
- Plant response rating, Morningglory ([2]; 500 g ai/ha, scale 0 to 100): 100
- Plant response rating, Black Mustard ([3]; 62 g ai/ha, scale 0-100): 95
- Plant response rating, Black Mustard ([3]; 125 g ai/ha, scale 0-100): 95
- Plant response rating, Black Mustard ([3]; 250 g ai/ha, scale 0-100): 100
- Plant response rating, Black Mustard ([3]; 500 g ai/ha, scale 0 to 100): 100
- Plant response rating, Surinam Grass ([4]; 62 g ai/ha, scale 0-100): 30
- Plant response rating, Surinam Grass ([4]; 125 g ai/ha, scale 0-100): 60
- Plant response rating, Surinam Grass ([4]; 250 g ai/ha, scale 0-100): 80
- Plant response rating, Surinam Grass ([4]; 500 g ai/ha, scale 0 to 100): 95
- Plant response rating, Bluegrass ([5]; 62 g ai/ha, scale 0-100): 10
- Plant response rating, Bluegrass ([5]; 125 g ai/ha, scale 0-100): 60
- Plant response rating, Bluegrass ([5]; 250 g ai/ha, scale 0-100): 80
- Plant response rating, Bluegrass ([5]; 500 g ai/ha, scale 0 to 100): 100
- Plant response rating, Ryegrass, Italian ([6]; 62 g ai/ha, scale 0-100): 30
- Plant response rating, Ryegrass, Italian ([6]; 125 g ai/ha, scale 0-100): 60
- Plant response rating, Ryegrass, Italian ([6]; 250 g ai/ha, scale 0-100): 100
- Plant response rating, Ryegrass, Italian ([6]; 500 g ai/ha, scale 0 to 100): 100
- Plant response rating, Mallow ([7]; 62 g ai/ha, scale 0-100): 100
- Plant response rating, Mallow ([7]; 125 g ai/ha, scale 0-100): 100
- Plant response rating, Mallow ([7]; 250 g ai/ha, scale 0-100): 100
- Plant response rating, Mallow ([7]; 500 g ai/ha, scale 0 to 100): 100
- Plant response rating, Dallisgrass ([8]; 62 g ai/ha, scale 0-100): 0
- Plant response rating, Dallisgrass ([8]; 125 g ai/ha, scale 0-100): 50
- Plant response rating, Dallisgrass ([8]; 250 g ai/ha, scale 0-100): 95
- Plant response rating, Dallisgrass ([8]; 500 g ai/ha, scale 0 to 100): 100
- Plant response rating, Sandbur ([9]; 62 g ai/ha, scale 0-100): 30
- Plant response rating, Sandbur ([9]; 125 g ai/ha, scale 0-100): 80
- Plant response rating, Sandbur ([9]; 250 g ai/ha, scale 0-100): 90
- Plant response rating, Sandbur ([9]; 500 g ai/ha, scale 0 to 100): 100
- Plant response rating, Bermudagrass ([10]; 62 g ai/ha, scale 0-100): 20
- Plant response rating, Bermudagrass ([10]; 125 g ai/ha, scale 0-100): 90
- Plant response rating, Bermudagrass ([10]; 250 g ai/ha, scale 0-100): 95
- Plant response rating, Bermudagrass ([10]; 500 g ai/ha, scale 0 to 100): 100
- Plant response rating, Quackgrass ([11]; 62 g ai/ha, scale 0-100): 60
- Plant response rating, Quackgrass ([11]; 125 g ai/ha, scale 0-100): 90
- Plant response rating, Quackgrass ([11]; 250 g ai/ha, scale 0-100): 100
- Plant response rating, Quackgrass ([11]; 500 g ai/ha, scale 0 to 100): 100
- Plant response rating, Johnsongrass ([12]; 62 g ai/ha, scale 0-100): 60
- Plant response rating, Johnsongrass ([12]; 125 g ai/ha, scale 0-100): 75
- Plant response rating, Johnsongrass ([12]; 250 g ai/ha, scale 0-100): 85
- Plant response rating, Johnsongrass ([12]; 500 g ai/ha, scale 0 to 100): 95
- Plant response rating, Foxtail, Green ([13]; 62 g ai/ha, scale 0-100): 20
- Plant response rating, Foxtail, Green ([13]; 125 g ai/ha, scale 0-100): 70
- Plant response rating, Foxtail, Green ([13]; 250 g ai/ha, scale 0-100): 100
- Plant response rating, Foxtail, Green ([13]; 500 g ai/ha, scale 0 to 100): 100
- Plant response rating, Itchgrass ([14]; 62 g ai/ha, scale 0-100): 70
- Plant response rating, Itchgrass ([14]; 125 g ai/ha, scale 0-100): 70
- Plant response rating, Itchgrass ([14]; 250 g ai/ha, scale 0-100): 80
- Plant response rating, Itchgrass ([14]; 500 g ai/ha, scale 0 to 100): 95
